From PubChem BioAssay (NCI)
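Tested at 5 concentrations; 48 h exposure; 96-well plates; endpoints linearly interpolated, else capped at highest concentration. GI50 is the concentration that inhibits growth by half. Definition used: TGI = concentration required for complete inhibition of growth.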

Experiments:
Assay in all cases: DTP human tumour cell line panel, 48 h
[1] = tested on: 786-0 renal
[2] = tested on: A498 renal
[3] = tested on: A549 NSCLC
[4] = tested on: ACHN renal
[5] = tested on: BT-549 breast
[6] = tested on: CAKI-1 renal
[7] = tested on: CCRF-CEM leukemia
[8] = tested on: COLO 205 colon
[9] = tested on: DU-145 prostate
[10] = tested on: EKVX NSCLC
[11] = tested on: HCC-2998 colon
[12] = tested on: HCT-116 colon
[13] = tested on: HCT-15 colon
[14] = tested on: HL-60(TB) leukemia
[15] = tested on: HOP-62 NSCLC
[16] = tested on: HOP-92 NSCLC
[17] = tested on: HS 578T breast
[18] = tested on: HT29 colon
[19] = tested on: IGROV1 ovarian
[20] = tested on: K-562 leukemia
[21] = tested on: KM12 colon
[22] = tested on: LOX IMVI melanoma
[23] = tested on: M14 melanoma
[24] = tested on: MALME-3M melanoma
[25] = tested on: MCF7 breast
[26] = tested on: MDA-MB-231 breast
[27] = tested on: MDA-MB-435
[28] = tested on: MOLT-4 leukemia
[29] = tested on: NCI-H226 lung
[30] = tested on: NCI-H23 lung
[31] = tested on: NCI-H460 lung
[32] = tested on: NCI-H522 lung
[33] = tested on: NCI/ADR-RES ovarian
[34] = tested on: OVCAR-3 ovarian
[35] = tested on: OVCAR-4 ovarian
[36] = tested on: OVCAR-5 ovarian
[37] = tested on: OVCAR-8 ovarian
[38] = tested on: PC-3 prostate
[39] = tested on: SF-268 CNS
[40] = tested on: SF-295 CNS
[41] = tested on: SF-539 CNS
[42] = tested on: SK-MEL-2 melanoma
[43] = tested on: SK-MEL-28 melanoma
[44] = tested on: SK-MEL-5 melanoma
[45] = tested on: SK-OV-3 ovarian
[46] = tested on: SN12C renal
[47] = tested on: SNB-19 CNS
[48] = tested on: SNB-75 CNS
[49] = tested on: SW-620 colon
[50] = tested on: T-47D breast
[51] = tested on: TK-10 renal
[52] = tested on: UACC-257 melanoma
[53] = tested on: UACC-62 melanoma
[54] = tested on: UO-31 renal

## CN1CCN(c2ccc(Nc3nc(NCCCNS(=O)(=O)c4cccc5ccccc45)c4sccc4n3)cc2)CC1
[1]
  GI50: 1.78 µM
  TGI: 3.44 µM
[2]
  GI50: 2.86 µM
  TGI: 9.4 µM
[3]
  GI50: 3.42 µM
  TGI: 19.9 µM
[4]
  GI50: 3.39 µM
  TGI: 10.6 µM
[5]
  GI50: 5.23 µM
  TGI: 21.4 µM
[6]
  GI50: 3.85 µM
  TGI: 14.7 µM
[7]
  GI50: 3.35 µM
  TGI: > 100 µM
[8]
  GI50: 2.12 µM
  TGI: 4.31 µM
[9]
  GI50: 6.23 µM
  TGI: 20.5 µM
[10]
  GI50: 7.21 µM
  TGI: 20.7 µM
[11]
  GI50: 1.97 µM
  TGI: 4.37 µM
[12]
  GI50: 2.27 µM
  TGI: 6.14 µM
[13]
  GI50: 1.78 µM
  TGI: 3.53 µM
[14]
  GI50: 2.06 µM
  TGI: 4.74 µM
[15]
  GI50: 15.3 µM
  TGI: 32.4 µM
[16]
  GI50: 7.45 µM
  TGI: 27.7 µM
[17]
  GI50: 2.32 µM
  TGI: 7.61 µM
[18]
  GI50: 2.41 µM
  TGI: 7.52 µM
[19]
  GI50: 2.92 µM
  TGI: 10.2 µM
[20]
  GI50: 3.1 µM
  TGI: > 100 µM
[21]
  GI50: 4.67 µM
  TGI: 22.7 µM
[22]
  GI50: 1.66 µM
  TGI: 3.05 µM
[23]
  GI50: 1.9 µM
  TGI: 3.48 µM
[24]
  GI50: 1.79 µM
  TGI: 3.19 µM
[25]
  GI50: 2.2 µM
  TGI: 5.25 µM
[26]
  GI50: 2.08 µM
  TGI: 4.06 µM
[27]
  GI50: 1.76 µM
  TGI: 3.21 µM
[28]
  GI50: 2.93 µM
  TGI: 11.9 µM
[29]
  GI50: 12.2 µM
  TGI: 34.4 µM
[30]
  GI50: 7.35 µM
  TGI: 22.3 µM
[31]
  GI50: 3.44 µM
  TGI: 10.6 µM
[32]
  GI50: 1.81 µM
  TGI: 3.92 µM
[33]
  GI50: 5.29 µM
  TGI: 19.8 µM
[34]
  GI50: 3.32 µM
  TGI: 10.5 µM
[35]
  GI50: 3.43 µM
  TGI: 13 µM
[36]
  GI50: 4.51 µM
  TGI: 16.5 µM
[37]
  GI50: 4.44 µM
  TGI: 23.5 µM
[38]
  GI50: 5.69 µM
  TGI: > 100 µM
[39]
  GI50: 3.43 µM
  TGI: 20.8 µM
[40]
  GI50: 1.86 µM
  TGI: 3.81 µM
[41]
  GI50: 1.72 µM
  TGI: 3.11 µM
[42]
  GI50: 2.36 µM
  TGI: 5.79 µM
[43]
  GI50: 1.73 µM
  TGI: 3.22 µM
[44]
  GI50: 1.78 µM
  TGI: 3.19 µM
[45]
  GI50: 20.8 µM
  TGI: 39.5 µM
[46]
  GI50: 6.48 µM
  TGI: 19.7 µM
[47]
  GI50: 5.75 µM
  TGI: 18.3 µM
[48]
  GI50: 12.7 µM
  TGI: 25.4 µM
[49]
  GI50: 2.02 µM
  TGI: 4.04 µM
[50]
  GI50: 2.76 µM
  TGI: 9 µM
[51]
  GI50: 4.54 µM
  TGI: 16.5 µM
[52]
  GI50: 1.83 µM
  TGI: 3.54 µM
[53]
  GI50: 1.69 µM
  TGI: 3.13 µM
[54]
  GI50: 2.35 µM
  TGI: 7.81 µM
